In one data set the test system is human erythrocytes. Nature of the data set: Hemolytic activity against human erythrocytes (HC50 / MHC, microtiter dilution). It counts as cell-based. The procedure:
(§1) Hemoglobin release was determined spectrophotometrically at 570 nm. The hemolytic activity was determined as the peptide concentration that caused 50% hemolysis of erythrocytes after 18 h (HC50). […] HC50 was determined by a plot of peptide concentration versus percent lysis.

The subject of the next data set is Acinetobacter baumannii. It counts as cell-based. The conditions noted are these: for Acinetobacter baumannii MICGM: geometric mean, 11 different isolates, 24 hours at 37° C. In a few lines:
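Microtiter broth dilution in triplicate, mainly LB no-salt medium (MH or BHI in some cases), peptides serially diluted, final inoculum 5×10^5 CFU/ml (1×10^5 CFU/ml in MH variant); 24 h at 37° C. MIC is the lowest peptide concentration inhibiting growth, given in micromolar against clinical isolates.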

The next data set relates to Pseudomonas aeruginosa. The settings on record: geometric mean, 6 different isolates, 24 hours at 37° C.
The nature of data set [1]: Hemolytic activity against human erythrocytes (HC50 / MHC, microtiter dilution). The settings on record: 1% human erythrocytes, pH 7.4. It counts as cell-based. The procedure:
as §1

The test system of data set [2] is Methicillin Resistant Staphylococcus aureus (MRSA) and Staphylococcus aureus. It counts as cell-based. In a few lines:
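MICs by microtiter broth dilution in triplicate determinations, mostly LB no-salt medium (sometimes MH or BHI), final inoculum 5×10^5 CFU/ml (1×10^5 CFU/ml in the MH variant), 24 h at 37 °C. MIC is the lowest peptide concentration inhibiting growth; tested on 20 clinical MRSA and S. aureus isolates.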

The subject of another data set is Gram-negative bacteria. The data set can be described thus: MIC against Gram-negative bacteria (V681 analog studies). The data set is classed as cell-based. The method, then:
Minimal inhibitory concentrations (MICs) are determined using a standard microtiter dilution method, with 3 sets of determinations, in LB (Luria-Bertani) no-salt medium (10 g of tryptone and 5 g of yeast extract per liter). In some cases, Mueller Hinton (MH) medium or Brain Heart Infusion (BHI) medium is used.
Briefly, cells were grown overnight at 37° C. in LB and diluted in the same medium. Serial dilutions of the peptides are added to the microtiter plates in a volume of 100 μl followed by 10 μl of bacteria to give a final inoculum of 5×10^5 colony-forming units/ml. Plates are incubated at 37° C. for 24 hours and MICs determined as the lowest peptide concentration that inhibited growth. Alternatively, minimal inhibitory concentrations are determined using a standard microtiter dilution method in a Mueller-Hinton (MH) medium. Briefly, cells are grown overnight at 37° C. in MH broth and diluted in the same medium. In some cases, serial dilutions of the peptides are added to the microtiter plates in a volume of 100 μl followed by 10 μl of bacteria to give a final inoculum of 1×10^5 colony-forming units/ml. Plates are incubated at 37° C. for 24 hours and MICs are determined as the lowest peptide concentration that inhibited growth.

Data set [3] can be described thus: Circular dichroism spectroscopy (helical structure). The data set is classed as physicochemical. For orientation: Circular dichroism is the unequal absorption of left and right circularly polarised light.

In brackets after ≈: the same amount, converted by molar mass. Read-outs that look alike come from different tables or passages of the source. Where a SMILES comes first, the peptide text is derived from it.

In turn, `CC(=O)N[C@H](CCCCN)C(=O)N[C@H](CC(C)C)C(=O)N[C@H](CCCCN)C(=O)N[C@H](CO)C(=O)N[C@H](CC(C)C)C(=O)N[C@H](CC(C)C)C(=O)N[C@H](CCCCN)C(=O)N[C@@H](C(=O)N[C@H](CC(C)C)C(=O)N[C@H](CO)C(=O)N[C@H](CCCCN)C(=O)N[C@H](CC(C)C)C(=O)N[C@H](CCCCN)C(=O)N[C@H](CCCCN)C(=O)N[C@H](CCCCN)C(=O)N[C@H](CCCCN)C(=O)N[C@H](CC(C)C)C(=O)N[C@H](CCCCN)C(=O)N[C@@H](C(=O)N[C@H](CC(C)C)C(=O)N[C@H](CC(C)C)C(=O)N[C@H](CCCCN)C(=O)N[C@H](CC(C)C)C(=O)N[C@H](CC(C)C)C(=O)N[C@H](CO)C(=O)N[C@H](CCCCN)C(N)=O)[C@H](C)O)[C@H](C)O` [Peptide D24, Ac-KLKSLLKTLSKLKKKKLKTLLKLLSK-amide] yielded a Hemolytic activity HC50 in the data set with human erythrocytes of 123 µM. Also, the Acinetobacter baumannii MICGM with Acinetobacter baumannii came to 1.9 µM. The molecule also displayed a Pseudomonas aeruginosa MICGM in the data set on Pseudomonas aeruginosa of 3.9 µM.
As for `CC(=O)N[C@H](CCCCN)C(=O)N[C@H](CC(C)C)C(=O)N[C@H](CCCCN)C(=O)N[C@H](CO)C(=O)N[C@H](CC(C)C)C(=O)N[C@H](CC(C)C)C(=O)N[C@H](CCCCN)C(=O)N[C@@H](C(=O)N[C@H](CC(C)C)C(=O)N[C@H](CO)C(=O)N[C@H](CCCCN)C(=O)N[C@H](C)C(=O)N[C@H](CCCCN)C(=O)N[C@H](CCCCN)C(=O)N[C@H](CCCCN)C(=O)N[C@H](CC(C)C)C(=O)N[C@H](CC(C)C)C(=O)N[C@H](CCCCN)C(=O)N[C@@H](C(=O)N[C@H](C)C(=O)N[C@H](CC(C)C)C(=O)N[C@H](CCCCN)C(=O)N[C@H](C)C(=O)N[C@H](CC(C)C)C(=O)N[C@H](CO)C(=O)N[C@H](CCCCN)C(N)=O)[C@H](C)O)[C@H](C)O` [Peptide D15, Ac-KLKSLLKTLSKAKKKLLKTALKALSK-amide], in data set [1] (human erythrocytes, concentration of peptide that results in 50% hemolysis after 18 hours at 37° C., read-out: Hemolytic activity HC50), the HC50 at 18 h was found to be 170 µM. Further, the “Hemolytic activity HC50” value with human erythrocytes amounted to 169.6 µM. Further, the Hemolytic activity HC50 in the data set on human erythrocytes (50% hemolysis after 18 hours at 37° C.) came to 170 µM. In the data set on Acinetobacter baumannii, the “Antimicrobial Activity MIC against A. baumannii” value (“Antimicrobial Activity MIC” for short) is 0.5 µM, the “MIC GM (geometric mean)” value stood at 0.5 µM (≈ 1.46 µg/mL) and the Acinetobacter baumannii MICGM worked out at 0.5 µM. In addition, in data set [2], the “MIC GM (geometric mean)” value is 8.1 µM (≈ 23.7 µg/mL). Besides, the Pseudomonas aeruginosa MICGM in the data set on Pseudomonas aeruginosa was determined as 1 µM.
Consider `CC[C@H](C)[C@H](NC(=O)[C@H](C)NC(=O)[C@H](CCCCN)NC(=O)[C@H](CC(C)C)NC(=O)[C@H](C)NC(=O)[C@@H](NC(=O)[C@H](Cc1c[nH]cn1)NC(=O)[C@H](CC(C)C)NC(=O)[C@@H](NC(=O)[C@@H](NC(=O)[C@H](CCCCN)NC(=O)[C@H](CC(C)C)NC(=O)[C@H](C)NC(=O)[C@H](CO)NC(=O)[C@H](CCCCN)NC(=O)[C@H](Cc1ccccc1)NC(=O)[C@@H](NC(=O)[C@H](CCCCN)NC(=O)[C@H](CC(C)C)NC(=O)[C@H](Cc1ccccc1)NC(=O)[C@H](CO)NC(=O)[C@H](CCCCN)NC(=O)[C@H](Cc1c[nH]c2ccccc12)NC(=O)[C@H](CCCCN)NC(C)=O)[C@@H](C)O)[C@@H](C)O)C(C)C)[C@@H](C)O)C(=O)N[C@@H](CO)C(=O)N[C@@H](CO)C(N)=O` [NLL] (Ac-KWKSFLKTFKSALKTVLHTALKAISS-NH2), for which the “MIC against Gram-negative bacteria” value with Gram-negative bacteria turned out to be 12.7 µg/mL (≈ 4.27 µM).
In data set [1] (human), `CC[C@@H](C)[C@@H](NC(=O)[C@@H](C)NC(=O)[C@@H](CCCCN)NC(=O)[C@@H](CC(C)C)NC(=O)[C@@H](CC(C)C)NC(=O)[C@H](NC(=O)[C@@H](CCCCN)NC(=O)[C@@H](CC(C)C)NC(=O)[C@@H](CCCCN)NC(=O)[C@@H](CCCCN)NC(=O)[C@@H](CCCCN)NC(=O)[C@@H](CCCCN)NC(=O)[C@@H](C)NC(=O)[C@@H](CCCCN)NC(=O)[C@@H](CO)NC(=O)[C@@H](Cc1ccccc1)NC(=O)[C@H](NC(=O)[C@@H](CCCCN)NC(=O)[C@@H](CC(C)C)NC(=O)[C@@H](Cc1ccccc1)NC(=O)[C@@H](CO)NC(=O)[C@@H](CCCCN)NC(=O)[C@@H](Cc1c[nH]c2ccccc12)NC(=O)[C@@H](CCCCN)NC(C)=O)[C@H](C)O)[C@H](C)O)C(=O)N[C@H](CO)C(=O)N[C@H](CCCCN)C(N)=O` [Peptide D14, Ac-KWKSFLKTFSKAKKKKLKTLLKAISK-amide] registered an HC50 at 18 h of 352 µM. Besides, in the data set with human erythrocytes, the “Hemolytic activity HC50” value stood at 351.5 µM. Moreover, in the data set on Acinetobacter baumannii, the “Antimicrobial Activity MIC” value stood at 0.8 µM, the “MIC GM (geometric mean)” value amounted to 0.8 µM (≈ 2.5 µg/mL) and the Acinetobacter baumannii MICGM was 0.8 µM. Moreover, the “MIC GM (geometric mean)” value in data set [2] is 40.1 µM (≈ 125 µg/mL). Also, the Pseudomonas aeruginosa MICGM in the data set with Pseudomonas aeruginosa was 2.5 µM.
In the data set with human erythrocytes, `CC(=O)N[C@H](CCCCN)C(=O)N[C@H](CC(C)C)C(=O)N[C@H](CCCCN)C(=O)N[C@H](CO)C(=O)N[C@H](CC(C)C)C(=O)N[C@H](CC(C)C)C(=O)N[C@H](CCCCN)C(=O)N[C@@H](C(=O)N[C@H](CC(C)C)C(=O)N[C@H](CO)C(=O)N[C@H](CCCCN)C(=O)N[C@H](CC(C)C)C(=O)N[C@H](CCCCN)C(=O)N[C@H](CCCCN)C(=O)N[C@H](CCCCN)C(=O)N[C@H](CCCCN)C(=O)N[C@H](CC(C)C)C(=O)N[C@H](CCCCN)C(=O)N[C@@H](C(=O)N[C@H](CC(C)C)C(=O)N[C@H](CC(C)C)C(=O)N[C@H](CCCCN)C(=O)N[C@H](C)C(=O)N[C@H](CC(C)C)C(=O)N[C@H](CO)C(=O)N[C@H](CCCCN)C(N)=O)[C@H](C)O)[C@H](C)O` [Peptide D23, Ac-KLKSLLKTLSKLKKKKLKTLLKALSK-amide] displayed a Hemolytic activity HC50 of 186 µM. The same molecule yielded an Acinetobacter baumannii MICGM in the data set on Acinetobacter baumannii of 0.8 µM. Moreover, the Pseudomonas aeruginosa MICGM in the data set on Pseudomonas aeruginosa was 2 µM.
As for `CC(=O)N[C@H](CCCCN)C(=O)N[C@H](CC(C)C)C(=O)N[C@H](CCCCN)C(=O)N[C@H](CO)C(=O)N[C@H](CC(C)C)C(=O)N[C@H](CC(C)C)C(=O)N[C@H](CCCCN)C(=O)N[C@@H](C(=O)N[C@H](CC(C)C)C(=O)N[C@H](CO)C(=O)N[C@H](CCCCN)C(=O)N[C@H](C)C(=O)N[C@H](CCCCN)C(=O)N[C@H](CCCCN)C(=O)N[C@H](CCCCN)C(=O)N[C@H](CCCCN)C(=O)N[C@H](CC(C)C)C(=O)N[C@H](CCCCN)C(=O)N[C@@H](C(=O)N[C@H](CC(C)C)C(=O)N[C@H](CC(C)C)C(=O)N[C@H](CCCCN)C(=O)N[C@H](C)C(=O)N[C@H](CC(C)C)C(=O)N[C@H](CO)C(=O)N[C@H](CCCCN)C(N)=O)[C@H](C)O)[C@H](C)O` [Peptide D16, Ac-KLKSLLKTLSKAKKKKLKTLLKALSK-amide], the HC50 at 18 h in data set [1] (human) was determined as 1340 µM. The “Fold less hemolytic than D1” value in the data set with human erythrocytes is recorded as 9.5. In addition, in the data set with Acinetobacter baumannii, the “Antimicrobial Activity MIC” value amounted to 0.4 µM, the “Fold more active than D1 against A. baumannii” value is on record as ~3 fold, the “MIC GM (geometric mean)” value came out at 0.4 µM (≈ 1.19 µg/mL) and the Acinetobacter baumannii MICGM worked out at 0.4 µM. In data set [2], the “MIC GM (geometric mean)” value was 48.3 µM (≈ 144 µg/mL). In the data set on Pseudomonas aeruginosa, this molecule returned a Pseudomonas aeruginosa MICGM of 1.5 µM.
For `CC[C@@H](C)[C@@H](NC(=O)[C@@H](C)NC(=O)[C@@H](CCCCN)NC(=O)[C@@H](CC(C)C)NC(=O)[C@@H](C)NC(=O)[C@H](NC(=O)[C@@H](CCCCN)NC(=O)[C@@H](CC(C)C)NC(=O)[C@H](NC(=O)[C@@H](CCCCN)NC(=O)[C@@H](CCCCN)NC(=O)[C@@H](CCCCN)NC(=O)[C@@H](C)NC(=O)[C@@H](CCCCN)NC(=O)[C@@H](CO)NC(=O)[C@@H](Cc1ccccc1)NC(=O)[C@H](NC(=O)[C@@H](CCCCN)NC(=O)[C@@H](CC(C)C)NC(=O)[C@@H](Cc1ccccc1)NC(=O)[C@@H](CO)NC(=O)[C@@H](CCCCN)NC(=O)[C@@H](Cc1c[nH]c2ccccc12)NC(=O)[C@@H](CCCCN)NC(C)=O)[C@H](C)O)C(C)C)[C@H](C)O)C(=O)N[C@H](CO)C(=O)N[C@H](CCCCN)C(N)=O` [Peptide D11, Ac-KWKSFLKTFSKAKKKVLKTALKAISK-amide], the HC50 at 18 h in data set [1] (human) came out at 254 µM. Also, in the data set with human erythrocytes, the “Hemolytic activity HC50” value came out at 254.1 µM. Also, in the data set with Acinetobacter baumannii, the “Antimicrobial Activity MIC” value turned out to be 0.6 µM, the “MIC GM (geometric mean)” value was 0.6 µM (≈ 1.83 µg/mL) and the Acinetobacter baumannii MICGM was found to be 0.6 µM. The “MIC GM (geometric mean)” value in data set [2] is 14.0 µM (≈ 42.7 µg/mL). This molecule also yielded a Pseudomonas aeruginosa MICGM with Pseudomonas aeruginosa of 1.6 µM.
On to “PLL: V681 with L-Leu at position 11 (polar face), SEQ ID NO:13 (KWKSFLKTFKLAVKTVLHTALKAISS)”, for which the “[θ]222 molar ellipticity” value in data set [3] (benign conditions (100 mM KCl, 50 mM aq. PO4, pH 7)) is reported as −10,850.
On to “Ac-ELEKGGLEGEKGGKELEK-amide (Ac-ELEKGGLEGEKGGKELEK-NH2) [peptide C]”, for which, in data set [3] (50% TFE, 5° C.), the “[θ]222 molar ellipticity” value was −3,950.

Broadly, the HC50 is the concentration giving 50% haemolysis.
